From patent US20010034362A1, “Pyrrolidine derivatives for vision and memory disorders” (Guilford Pharmaceuticals Inc., priority 1998, published 2001)
Where two headings read alike, the source gives them in different places.

What was measured:
[1] = target: FKBP12 (Homo sapiens, UniProt P62942); assay: Inhibition of peptidyl-prolyl isomerase (rotamase) activity of FKBP, chymotrypsin-coupled assay, apparent Ki; format: biochemical
Text: The inhibition of the prolyl peptidyl cis-trans isomerase activity of FKBP may be measured as an indicator of this affinity. Inhibition of the peptidyl-prolyl isomerase (rotamase) activity of the compounds used in the inventive methods and pharmaceutical compositions can be evaluated by known methods described in the literature (Harding et al., Nature, 1989, 341:758-760; Holt et al. J. Am. Chem. Soc., 115:9923-9938). […] The cis-trans isomerization of an alanine-proline bond in a model substrate, N-succinyl-[…]-nitroanilide, is monitored spectrophotometrically in a chymotrypsin-coupled assay, which releases para-nitroanilide from the trans form of the substrate. […] The reaction is initiated by the addition of […] of substrate (succinyl-[…]-nitroanilide, 5 mg/ml in 2.35 mM LiCl in trifluoroethanol).

[2] = Clearance (Table V comments); format: in vitro ADME
[3] = tested on: retinal ganglion cell axons; assay: Protection of retinal ganglion cell axons from degeneration following optic nerve transection (Table V); format: in vivo; conditions: ± SEM
Text: Efficacy of representative compounds from different immunophilin ligand series in protecing retinal gangiou cell axons from degeneration following optic nerve transection is set forth in Table V.

[4] = apparent Ki, rotamase inhibition, Table A, read-out: K1
[5] = Table V comments, read-out: Ki rotamase

Chain of FKBP12 (P62942 whole entry, species assumed): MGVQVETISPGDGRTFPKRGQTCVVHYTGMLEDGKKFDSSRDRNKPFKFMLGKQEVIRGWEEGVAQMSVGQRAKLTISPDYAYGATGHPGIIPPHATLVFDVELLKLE

Ki [1, 4] | SMILES | Clearance [2] | other results
65 nM | CCC(C)(C)C(=O)C(=O)N1CCCC1C(=O)OCC=Cc1cc(OC)c(OC)c(OC)c1 [Compound 4, 3-(3,4,5-trimethoxyphenyl)-1-prop-2-(E)-enyl (2S)-1-(3,3-dimethyl-1,2-dioxopentyl)-2-pyrrolidine carboxylate] |  | 
20 nM | O=C(C(=O)N1CCCC1C(=O)OCCC(c1ccccc1)c1ccccc1)C1CCCCC1 [Compound 29, 3,3-Diphenyl-1-propyl (2S)-1-cyclohexyl glyoxyl-2-pyrrolidinecarboxylate] |  | 
 | CCC(C)(C)C(=O)C(=O)N1CCC[C@H]1C(=O)SCCC(c1ccccc1)c1ccccc1 [M] | 12.5 µL/min | RT97 + RGC axon density 14 days after ON transection (% ON axons rescued) [3]: −6.3% + 3.9 SEM
600 nM | CCC(C)(C)C(=O)C(=O)N1CCCC1C(=O)OCC=CC1CCCCC1 [Compound 8, 3-cyclohexyl-1-prop-2-(E) -enyl (2S) -1-(3,3-dimethyl-1,2-doxopentyl)-2-pyrrolidinecarboxylate] |  | 
 | CN(C)C(=O)N1CCC[C@H]1C(=O)SCCCc1ccccc1 [N] | 21.9 µL/min | Ki [1, 5]: 722 nM
1970 nM | O=C(C(=O)N1CCCC1C(=O)OCCCc1ccccc1)c1ccccc1 [Compound 13, 3-phenyl-1-propyl (2S)-1-(1,2-dioxo-2-phenyl)ethyl-2-pyrrolidinecarboxylate] |  | 
 | CCC(C)(C)C(=O)C(=O)N1CCCC[C@H]1C(=O)SCCC(c1ccccc1)c1ccccc1 [K] | 5.2 µL/min | RT97 + RGC axon density 14 days after ON transection (% ON axons rescued) [3]: 7.8% ± 3.0% SEM
150 nM | O=C(C(=O)N1CCCC1C(=O)OCCC(c1ccccc1)c1ccccc1)c1cccs1 [Compound 30, 3,3-Diphenyl-1-propyl (2S) -1-(2-thienyl) glyoxyl-2-pyrrolidinecarboxylate] |  | 
450 nM | CCC(C)(C)C(=O)C(=O)N1CCCC1C(=O)OCC=Cc1cc(OC)ccc1OC [Compound 15, 3-(2,5-dimethoxyphenyl)-1-prop-2-(E)-enyl (2S)-1-(3,3-dimethyl-1,2-dioxopentyl)-2-pyrrolidine-carboxylate] |  | 
92 nM | O=C(C(=O)N1CCCC1C(=O)OCCCc1ccccc1)c1cccs1 [Compound 11, 3-phenyl-1-propyl (2S)-1-(1,2-dioxo-2-[2-thienyl])ethyl-2-pyrrolidinecarboxylate] |  | 
 | O=C(OCCCc1ccccc1)[C@@H]1CCCN1S(=O)(=O)Cc1ccccc1 [D] |  | RT97 + RGC axon density 14 days after ON transection (% ON axons rescued) [3]: 58.4% ± 6.4% SEM
 | O=C(SCCCc1ccccc1)[C@@H]1CCCN1S(=O)(=O)Cc1ccccc1 [C] | 31.1 µL/min | Ki [1, 5]: 107 nM; RT97 + RGC axon density 14 days after ON transection (% ON axons rescued) [3]: 60.4% ± 3.1% SEM
100 nM | O=C(C(=O)N1CCCC1C(=O)OCCCc1ccccc1)c1nccs1 [Compound 12, 3-phenyl-1-propyl (2S)-1-(1,2-dioxo-2-[2-thiazolyl])ethyl-2-pyrrolidinecarboxylate] |  | 
 | CCC(C)(C)C(=O)C(=O)N1CCC[C@H]1C(=O)CCCCc1cccnc1 [J] | 1.5 µL/min | 
160 nM | CCC(C)(C)C(=O)C(=O)N1CCCC1C(=O)OCC=Cc1ccc2c(c1)OCO2 [Compound 6, 3-(4,5-methylenedioxyphenyl)-1-prop-2-(E)-enyl (2S)-1-(3,3-dimethyl-1,2-dioxopentyl)-2-pyrrolidinecarboxylate] |  | 
 | CCC(C)(C)C(=O)C(=O)N1CCCC1C(=O)OC(CCc1ccccc1)CCc1ccccc1 (stereo not drawn) [E] | 41.8 µL/min | RT97 + RGC axon density 14 days after ON transection (% ON axons rescued) [3]: 56.6% ± 9.4% SEM
 | CCC(C)(C)C(=O)C(=O)N1CCC[C@H]1C(=O)O [L] | 5.2 µL/min | RT97 + RGC axon density 14 days after ON transection (% ON axons rescued) [3]: 7.8% ± 3.0% SEM
 | CCC(C)(C)C(=O)C(=O)N1CCS[C@@H]1C(=O)OCCCc1cccnc1 [F] |  | Ki [1, 5]: 272 nM
 | O=C(OCCCc1cccnc1)[C@@H]1CCCN1C(=S)NC1CCCCC1 [I] | 8.0 µL/min | Ki [1, 5]: 131 nM
125 nM | CCC(C)(C)C(=O)C(=O)N1CCCC1C(=O)OCC=Cc1ccccc1 [Compound 2, 3-phenyl-1-prop-2-(E)-enyl (2S)-1-(3,3-dimethyl-1,2-dioxopentyl)-2-pyrrolidinecarboxylate] |  | 
 | O=C(SCCCc1ccccc1)[C@@H]1CCCN1C(=O)NC12CC3CC(CC(C3)C1)C2 [B] |  | Ki [1, 5]: 149 nM

SMILES | Ki [1, 4] | Clearance [2] | other results
CCC(C)(C)C(=O)C(=O)N1CCC[C@H]1C(=O)OCCCc1ccccc1 [Compound 1, 3-Phenyl-1-propyl (2S)-1-(3,3-dimethyl-1,2-dioxopentyl)-2-pyrrolidinecarboxylate] | 42 nM |  | 
